Experimental data: PubChem BioAssay (NCI)
Where “and” joins values, the source holds several entries; their conditions need not be identical. Equal values may be shown once.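 Test compounds were applied to cells in 96-well plates for 48 hours at 5 doses. Abbreviation: GI50, concentration required for 50% inhibition of growth. The concentration for full growth arrest is given as TGI.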

Legend:
Experiment in all cases: growth of human tumour cells (NCI), 48 h
LXFL 529 NSCLC = system: LXFL 529 NSCLC
SK-MEL-2 melanoma = system: SK-MEL-2 melanoma
SN12C renal = system: SN12C renal
NCI-H226 lung = system: NCI-H226 lung
DMS 273 small cell lung = system: DMS 273 small cell lung
M14 melanoma = system: M14 melanoma
SF-268 CNS = system: SF-268 CNS
ACHN renal = system: ACHN renal
MALME-3M melanoma = system: MALME-3M melanoma
HCC-2998 colon = system: HCC-2998 colon
SR leukemia = system: SR leukemia
HCT-116 colon = system: HCT-116 colon
CAKI-1 renal = system: CAKI-1 renal
A549 NSCLC = system: A549 NSCLC
UACC-257 melanoma = system: UACC-257 melanoma
HOP-62 NSCLC = system: HOP-62 NSCLC
RXF 393 renal = system: RXF 393 renal
LOX IMVI melanoma = system: LOX IMVI melanoma
NCI-H522 lung = system: NCI-H522 lung
UO-31 renal = system: UO-31 renal
NCI-H23 lung = system: NCI-H23 lung
RXF-631 renal = system: RXF-631 renal
CCRF-CEM leukemia = system: CCRF-CEM leukemia
RPMI-8226 leukemia = system: RPMI-8226 leukemia
M19-MEL melanoma = system: M19-MEL melanoma
SK-MEL-5 melanoma = system: SK-MEL-5 melanoma
U251 CNS = system: U251 CNS
OVCAR-3 ovarian = system: OVCAR-3 ovarian
786-0 renal = system: 786-0 renal
SNB-19 CNS = system: SNB-19 CNS
SW-620 colon = system: SW-620 colon
SF-295 CNS = system: SF-295 CNS
KM12 colon = system: KM12 colon
IGROV1 ovarian = system: IGROV1 ovarian
OVCAR-4 ovarian = system: OVCAR-4 ovarian
SNB-75 CNS = system: SNB-75 CNS
MOLT-4 leukemia = system: MOLT-4 leukemia
EKVX NSCLC = system: EKVX NSCLC
K-562 leukemia = system: K-562 leukemia
SK-MEL-28 melanoma = system: SK-MEL-28 melanoma
A498 renal = system: A498 renal
SF-539 CNS = system: SF-539 CNS
HT29 colon = system: HT29 colon
OVCAR-8 ovarian = system: OVCAR-8 ovarian
UACC-62 melanoma = system: UACC-62 melanoma
KM20L2 colon = system: KM20L2 colon
HCT-15 colon = system: HCT-15 colon
DLD-1 colon = system: DLD-1 colon
HL-60(TB) leukemia = system: HL-60(TB) leukemia
SNB-78 CNS = system: SNB-78 CNS
TK-10 renal = system: TK-10 renal
HOP-18 NSCLC = system: HOP-18 NSCLC
XF 498 CNS = system: XF 498 CNS
MDA-MB-231 breast = system: MDA-MB-231 breast
HS 578T breast = system: HS 578T breast
SK-OV-3 ovarian = system: SK-OV-3 ovarian
NCI-H460 lung = system: NCI-H460 lung
T-47D breast = system: T-47D breast
MCF7 breast = system: MCF7 breast
OVCAR-5 ovarian = system: OVCAR-5 ovarian
DU-145 prostate = system: DU-145 prostate
HOP-92 NSCLC = system: HOP-92 NSCLC
MDA-MB-435 = system: MDA-MB-435
PC-3 prostate = system: PC-3 prostate
COLO 205 colon = system: COLO 205 colon
DMS 114 small cell lung = system: DMS 114 small cell lung

O=C(/C=C\c1cccc2ccccc12)c1cccc2ccccc12
GI50 (LXFL 529 NSCLC): 2.9 µM | TGI (LXFL 529 NSCLC): 13.6 µM | TGI (SK-MEL-2 melanoma): 36.8 µM | TGI (SN12C renal): > 100 µM | GI50 (NCI-H226 lung): 12.2 µM | TGI (NCI-H226 lung): 25 µM | GI50 (DMS 273 small cell lung): 4.03 µM | TGI (DMS 273 small cell lung): 24.7 µM | TGI (M14 melanoma): 26 µM | GI50 (SF-268 CNS): 4.74 µM | TGI (SF-268 CNS): 22.1 µM | TGI (ACHN renal): 24.1 µM | TGI (MALME-3M melanoma): 36.1 µM | TGI (HCC-2998 colon): 28.4 µM | GI50 (SR leukemia): 3.95 µM | TGI (SR leukemia): > 100 µM | GI50 (HCT-116 colon): 3.36 µM | TGI (HCT-116 colon): 13.4 µM | TGI (CAKI-1 renal): 32.4 µM | TGI (A549 NSCLC): 36.5 µM | TGI (UACC-257 melanoma): 29.9 µM | TGI (HOP-62 NSCLC): 39.7 µM | GI50 (RXF 393 renal): 7.46 µM | TGI (RXF 393 renal): 20.1 µM | GI50 (LOX IMVI melanoma): 4.42 µM | TGI (LOX IMVI melanoma): 18 µM | GI50 (NCI-H522 lung): 4.46 µM | TGI (NCI-H522 lung): 16.1 µM | TGI (UO-31 renal): 27.4 µM | GI50 (NCI-H23 lung): 2.09 µM | TGI (NCI-H23 lung): 8.96 µM | GI50 (RXF-631 renal): 10.5 µM | TGI (RXF-631 renal): 26.4 µM | GI50 (CCRF-CEM leukemia): 2.28 µM | TGI (CCRF-CEM leukemia): 8.97 µM | GI50 (RPMI-8226 leukemia): 2.68 µM | TGI (RPMI-8226 leukemia): > 100 µM | TGI (M19-MEL melanoma): 33.6 µM | TGI (SK-MEL-5 melanoma): 27.1 µM | GI50 (U251 CNS): 12 µM | TGI (U251 CNS): 24.4 µM | GI50 (OVCAR-3 ovarian): 12.5 µM | TGI (OVCAR-3 ovarian): 25.3 µM | TGI (786-0 renal): 17.4 µM | TGI (SNB-19 CNS): 23.7 µM | GI50 (SW-620 colon): 2.7 µM | TGI (SW-620 colon): 10.6 µM | TGI (SF-295 CNS): 30.2 µM | GI50 (KM12 colon): 4.2 µM | TGI (KM12 colon): 16.5 µM | TGI (IGROV1 ovarian): 25.9 µM | GI50 (OVCAR-4 ovarian): 11.3 µM | TGI (OVCAR-4 ovarian): 36.9 µM | TGI (SNB-75 CNS): 18.6 µM | GI50 (MOLT-4 leukemia): 2.49 µM | TGI (MOLT-4 leukemia): 8.08 µM and 20.5 µM | TGI (EKVX NSCLC): 27.6 µM | GI50 (K-562 leukemia): 2.82 µM | TGI (K-562 leukemia): 18.6 µM | TGI (SK-MEL-28 melanoma): 20.5 µM | TGI (A498 renal): 31.7 µM | TGI (SF-539 CNS): 28 µM | GI50 (HT29 colon): 4.47 µM | GI50 (OVCAR-8 ovarian): 2.61 µM | TGI (OVCAR-8 ovarian): 6.01 µM | TGI (UACC-62 melanoma): 27.8 µM | GI50 (KM20L2 colon): 3.96 µM | TGI (KM20L2 colon): 15 µM | TGI (HCT-15 colon): 19.6 µM | GI50 (DLD-1 colon): 3.43 µM | TGI (DLD-1 colon): 15.8 µM | GI50 (HL-60(TB) leukemia): 2.9 µM | TGI (HL-60(TB) leukemia): 9.29 µM and 25.6 µM

O=C(NC(=O)c1ccccc1[N+](=O)[O-])Nc1ccc(Oc2ncc(Cl)cn2)c(C(F)(F)F)c1
TGI (LXFL 529 NSCLC): > 43.9 µM | TGI (SNB-78 CNS): > 100 µM | TGI (SN12C renal): 62.9 µM | TGI (NCI-H226 lung): 1.39 µM | TGI (DMS 273 small cell lung): 0.669 µM | TGI (M14 melanoma): 39.4 µM | TGI (SF-268 CNS): 38.4 µM | TGI (ACHN renal): 32.1 µM | TGI (MALME-3M melanoma): > 100 µM | TGI (HCC-2998 colon): 0.0775 µM | TGI (SR leukemia): > 100 µM | TGI (TK-10 renal): > 100 µM | TGI (HOP-18 NSCLC): > 100 µM | TGI (XF 498 CNS): 1.62 µM | TGI (MDA-MB-231 breast): 2.6 µM | TGI (HCT-116 colon): 27.3 µM | TGI (A549 NSCLC): > 100 µM | TGI (UACC-257 melanoma): 41.8 µM | TGI (HS 578T breast): 2.45 µM | TGI (HOP-62 NSCLC): 66.4 µM | TGI (SK-OV-3 ovarian): > 46.5 µM | TGI (LOX IMVI melanoma): 13.8 µM | TGI (NCI-H522 lung): 0.16 µM | TGI (UO-31 renal): 35.2 µM | TGI (NCI-H23 lung): > 100 µM | TGI (CCRF-CEM leukemia): > 100 µM | TGI (RPMI-8226 leukemia): > 67.9 µM | TGI (M19-MEL melanoma): > 100 µM | TGI (NCI-H460 lung): > 20.7 µM | TGI (T-47D breast): > 89.1 µM | TGI (SK-MEL-5 melanoma): 1.17 µM | TGI (U251 CNS): 10.8 µM | TGI (OVCAR-3 ovarian): 0.838 µM | TGI (786-0 renal): 24.6 µM | TGI (MCF7 breast): > 52.2 µM | TGI (SNB-19 CNS): 85.7 µM | TGI (SW-620 colon): > 11.9 µM | TGI (SF-295 CNS): > 4.64 µM | TGI (OVCAR-5 ovarian): 80.4 µM | TGI (KM12 colon): 3.63 µM | TGI (IGROV1 ovarian): > 100 µM | TGI (DU-145 prostate): > 100 µM | TGI (OVCAR-4 ovarian): 98.4 µM | TGI (MOLT-4 leukemia): > 69.1 µM | TGI (HOP-92 NSCLC): 3.24 µM | TGI (EKVX NSCLC): > 100 µM | TGI (K-562 leukemia): > 100 µM | TGI (MDA-MB-435): < 0.0123 µM | TGI (SK-MEL-28 melanoma): > 4.64 µM | TGI (A498 renal): 1.29 µM | TGI (SF-539 CNS): 0.489 µM | TGI (PC-3 prostate): 0.0658 µM | TGI (HT29 colon): 0.167 µM | TGI (OVCAR-8 ovarian): 9.71 µM | TGI (UACC-62 melanoma): > 100 µM | TGI (KM20L2 colon): < 0.0231 µM | TGI (COLO 205 colon): 0.109 µM | TGI (HCT-15 colon): > 38.1 µM | TGI (DLD-1 colon): > 100 µM | TGI (HL-60(TB) leukemia): 0.125 µM

CN(C)C(=O)Oc1c(-c2ccccc2)c(=O)n2c3ccccc3n3c(=O)n(C)c(=O)c1c23
TGI (LXFL 529 NSCLC): > 100 µM | TGI (SNB-78 CNS): > 100 µM | TGI (SK-MEL-2 melanoma): > 100 µM | TGI (SN12C renal): > 100 µM | TGI (DMS 273 small cell lung): > 100 µM | TGI (M14 melanoma): > 100 µM | TGI (SF-268 CNS): > 100 µM | TGI (ACHN renal): > 100 µM | TGI (MALME-3M melanoma): > 100 µM | TGI (HCC-2998 colon): > 100 µM | TGI (SR leukemia): > 100 µM | TGI (TK-10 renal): > 100 µM | TGI (HOP-18 NSCLC): > 100 µM | TGI (XF 498 CNS): > 100 µM | TGI (HCT-116 colon): > 100 µM | TGI (CAKI-1 renal): > 100 µM | TGI (A549 NSCLC): > 100 µM | TGI (UACC-257 melanoma): > 100 µM | TGI (HOP-62 NSCLC): > 100 µM | TGI (SK-OV-3 ovarian): > 100 µM | TGI (RXF 393 renal): > 100 µM | TGI (LOX IMVI melanoma): > 100 µM | TGI (UO-31 renal): > 100 µM | TGI (NCI-H23 lung): > 100 µM | TGI (RXF-631 renal): > 100 µM | TGI (RPMI-8226 leukemia): > 100 µM | TGI (M19-MEL melanoma): > 100 µM | TGI (NCI-H460 lung): > 100 µM | TGI (SK-MEL-5 melanoma): > 100 µM | TGI (U251 CNS): > 100 µM | TGI (OVCAR-3 ovarian): > 100 µM | TGI (786-0 renal): > 100 µM | TGI (SNB-19 CNS): > 100 µM | TGI (SW-620 colon): > 100 µM | TGI (SF-295 CNS): > 100 µM | TGI (OVCAR-5 ovarian): > 100 µM | TGI (IGROV1 ovarian): > 100 µM | TGI (OVCAR-4 ovarian): > 100 µM | TGI (SNB-75 CNS): > 100 µM | TGI (DMS 114 small cell lung): > 100 µM | TGI (MOLT-4 leukemia): > 100 µM | TGI (HOP-92 NSCLC): > 100 µM | TGI (EKVX NSCLC): > 100 µM | TGI (SK-MEL-28 melanoma): > 100 µM | TGI (A498 renal): > 100 µM | TGI (SF-539 CNS): > 100 µM | TGI (HT29 colon): > 100 µM | TGI (OVCAR-8 ovarian): > 100 µM | TGI (UACC-62 melanoma): > 100 µM | TGI (COLO 205 colon): > 100 µM | TGI (HCT-15 colon): > 100 µM | TGI (DLD-1 colon): > 100 µM
